These results are taken from ChEMBL document CHEMBL1201862, “PubChem BioAssay data set” (2004).

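Grown in 96-well plates, cells were treated for 48 hours with each compound at five concentrations. Insufficient inhibition: endpoint recorded as highest concentration tested. GI50 is the concentration that inhibits growth by half.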 Active and inactive are the calls of the source. Cut-off read from the data, not from the text of the source: active = GI50 up to about 1.1 µM and inactive = higher.

Test systems include EKVX; MDA-N; SNB-19; OVCAR-8; HCT-116; MOLT-4; SK-OV-3; HCT-15; A498; NCI-H226; NCI-H460; SK-MEL-28; K562; SK-MEL-2; NCI-H23; HL-60.
What all share (test): growth of human tumour cells (NCI), 48 h

`CC(Nc1cccc(Cl)c1)c1ccncc1` (stereo not given): the GI50 in the assay on EKVX was 57.9 µM (inactive); in the assay on MDA-N, > 100 µM (inactive); in the assay with SNB-19, > 100 µM (inactive); in the assay on OVCAR-8, 88.3 µM (inactive); in the assay on HCT-116, 70.8 µM (inactive); in the assay on MOLT-4, 31 µM (inactive). The GI50 in the assay on SK-OV-3 is 15.8 µM (inactive); in the assay with HCT-15 it was > 100 µM; in the assay with A498, 95.9 µM (inactive); in the assay with NCI-H226 it was 44.3 µM (inactive); with NCI-H460, > 100 µM (inactive); in the assay on SK-MEL-28, > 100 µM (inactive). In addition, the GI50 in the assay on K562 was 23.1 µM (inactive); with SK-MEL-2, > 100 µM (inactive); in the assay with NCI-H23, 71.3 µM (inactive).

Consider `COc1cc(/C=C2\C[C@H]3[C@@H]4CC=C5C[C@@H](OC(C)=O)CC[C@]5(C)[C@H]4CC[C@]3(C)\C2=N\O)cc(OC)c1OC`, for which the GI50 in the assay on EKVX is 4.71 µM (inactive); in the assay on MDA-N it was 4.62 µM (inactive); in the assay with SNB-19 it was 29.9 µM (inactive); in the assay on OVCAR-8, 4.29 µM (inactive); with HCT-116 it was 4.53 µM (inactive); in the assay on MOLT-4, 2.36 µM (inactive). Further, the GI50 is 25.5 µM (inactive) in the assay on SK-OV-3; 2.88 µM (inactive) with HL-60; 4.42 µM in the assay with HCT-15; 8.45 µM (inactive) in the assay on NCI-H226; 4.08 µM (inactive) with NCI-H460; 5.58 µM (inactive) in the assay on SK-MEL-28. For the same molecule, the values for the GI50 in the assay on K562, in the assay on SK-MEL-2 and with NCI-H23 were 4.27 µM (inactive), 7.01 µM (inactive) and 5.7 µM (inactive), respectively.

For `CC1CC(=O)N2CCCNC2=C1C#N` (stereo not given), the GI50 with EKVX, in the assay with MDA-N, in the assay on SNB-19, in the assay on OVCAR-8, in the assay with HCT-116 and in the assay with MOLT-4 was > 100 µM (inactive) in each case. Moreover, the GI50 in the assay with SK-OV-3 is > 100 µM (inactive); with HL-60, > 10 µM (inactive); in the assay on HCT-15 it was > 100 µM; in the assay with NCI-H226, > 100 µM (inactive); in the assay on NCI-H460, > 100 µM (inactive); in the assay with SK-MEL-28, > 100 µM (inactive). Also, the GI50 in the assay on K562, in the assay with SK-MEL-2 and in the assay with NCI-H23 was > 100 µM (inactive) each time.

In the case of `Cn1c(=N)n[n+]([O-])c2ccccc21`, the GI50 with EKVX was 9.93 µM (inactive); in the assay with MDA-N it was 1.66 µM (inactive); in the assay on OVCAR-8, 13.2 µM (inactive); in the assay with HCT-116 it was 4.14 µM (inactive); in the assay on MOLT-4, 1.87 µM (inactive); in the assay on SK-OV-3, 22.9 µM (inactive). The GI50 with HL-60 was 2.17 µM (inactive); with NCI-H226, 13.4 µM (inactive); in the assay with K562, 1.36 µM (inactive); with SK-MEL-2, 3.47 µM (inactive); in the assay with NCI-H23, 2.16 µM (inactive).

On to `COC1C(=O)CCC2(CO2)C1(O)C1(C)OC1CC=C(C)C` (stereo not given), for which the GI50 in the assay with EKVX is 93.5 µM (inactive); with MDA-N, 41 µM (inactive); in the assay on SNB-19, 15 µM (inactive); in the assay on OVCAR-8 it was 30.9 µM (inactive); in the assay on HCT-116, 11.3 µM (inactive); in the assay with MOLT-4, 25.1 µM (inactive). For the same molecule, the GI50 is 51.6 µM (inactive) with SK-OV-3; 19 µM with HCT-15; 26.3 µM (inactive) in the assay with A498; 27.3 µM (inactive) in the assay with NCI-H460; 17.3 µM (inactive) in the assay on SK-MEL-28; 16.9 µM (inactive) in the assay with K562. In addition, the values for the GI50 in the assay with SK-MEL-2 and in the assay on NCI-H23 were 27.6 µM (inactive) and 46.7 µM (inactive), respectively.

On to `CC1(C)C=Cc2c(cc3oc4ccc5c(c4c(=O)c3c2O)C=CC(C)(C)O5)O1`, for which the GI50 in the assay with EKVX, with MDA-N, in the assay on SNB-19, in the assay with OVCAR-8, in the assay on HCT-116 and in the assay with MOLT-4 was > 100 µM (inactive) in each case. The GI50 with SK-OV-3 is > 100 µM (inactive); in the assay on HCT-15, > 100 µM; in the assay on A498, > 100 µM (inactive); in the assay with NCI-H226, > 100 µM (inactive); in the assay on SK-MEL-28 it was > 100 µM (inactive); in the assay with SK-MEL-2, > 100 µM (inactive). Further, the GI50 in the assay with NCI-H23 was > 100 µM (inactive).

`COc1ccc2c(c1)CN1C(=N2)CSC1c1cccc(Br)c1` (stereo not given): the GI50 in the assay on EKVX was 22.1 µM (inactive); in the assay on MDA-N it was 4.1 µM (inactive); in the assay with SNB-19, 47.3 µM (inactive); in the assay with OVCAR-8 it was 69.8 µM (inactive); with HCT-116, 19 µM (inactive); in the assay on MOLT-4 it was 6.82 µM (inactive). Besides, the GI50 in the assay on SK-OV-3 was > 100 µM (inactive); in the assay on HL-60 it was 3.58 µM (inactive); in the assay with HCT-15, 11 µM; with NCI-H226 it was 4.86 µM (inactive); in the assay with NCI-H460 it was 30.1 µM (inactive); in the assay on SK-MEL-28, 11.9 µM (inactive). Besides, the GI50 with K562 is 5.89 µM (inactive); with SK-MEL-2, 24.2 µM (inactive); in the assay with NCI-H23, 17.7 µM (inactive).

Regarding `COc1cc(OCCN(C)C)c2[nH]c(C(=O)N3CC(CCl)c4ccc(N)cc43)cc2c1` (stereo not given), the GI50 is 0.108 µM (active) in the assay with EKVX; 0.0643 µM (active) in the assay with MDA-N; 0.114 µM (active) with SNB-19; 0.0432 µM (active) with OVCAR-8; 0.0238 µM (active) in the assay on HCT-116; < 0.01 µM (active) in the assay on MOLT-4. Moreover, the GI50 with SK-OV-3 is 1.04 µM (active); in the assay with HCT-15, 0.0418 µM; with A498, 0.201 µM (active); with NCI-H226 it was 0.0865 µM (active); in the assay with NCI-H460 it was 0.0147 µM (active); in the assay on SK-MEL-28, 0.0628 µM (active). Also, the GI50 with K562 was 0.0239 µM (active); in the assay on SK-MEL-2 it was 0.0381 µM (active); in the assay with NCI-H23 it was 0.0269 µM (active).

Take `NC1=NCC(CN2CCCCC2)O1` (stereo not given): the GI50 with EKVX, in the assay on MDA-N, in the assay with SNB-19, with OVCAR-8, in the assay on HCT-116 and with MOLT-4 was > 100 µM (inactive) in each case. Further, the GI50 is 4.12 µM (inactive) with SK-OV-3; > 100 µM (inactive) in the assay on HL-60; > 100 µM with HCT-15; > 100 µM (inactive) in the assay on NCI-H226; > 100 µM (inactive) in the assay with NCI-H460; > 100 µM (inactive) with SK-MEL-28. Moreover, in the assay with K562, the GI50 is > 100 µM (inactive).

As to `C/C(=N\Nc1nc2ccccc2[nH]1)c1ccc2ccccc2n1`, the GI50 in the assay with EKVX was 0.678 µM (active); in the assay with MDA-N, 3.97 µM (inactive); with SNB-19, 2.75 µM (inactive); in the assay with OVCAR-8, 3.33 µM (inactive); in the assay on HCT-116, 1.95 µM (inactive); with MOLT-4, 0.755 µM (active). Besides, the GI50 was 8.87 µM (inactive) in the assay with SK-OV-3; 1.8 µM (inactive) in the assay with HL-60; 1.29 µM in the assay on HCT-15; 2.25 µM (inactive) in the assay with NCI-H460; 3.79 µM (inactive) in the assay with SK-MEL-28; 2.39 µM (inactive) in the assay with K562. The GI50 in the assay with SK-MEL-2 was 1.67 µM (inactive); in the assay on NCI-H23 it was 3.89 µM (inactive).
